Entries after “also recorded” stand apart in the source; their conditions may differ.
Assays:
[1] = system: Leishmania braziliensis; test: Leishmanicidal activity against promastigotes (resazurin); assay type: cell-based
Method in brief: (§1)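 Stationary-phase (day 5) metacyclic promastigotes were purified by centrifugation and plated at 1 × 10^7 parasites per well in Schneider medium. Compounds were tested in triplicate from 500 µM down to 3.9 µM by serial dilution for 24 h. Viability was read by resazurin fluorescence.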

[2] = system: Leishmania infantum; test: as above; assay type: cell-based; details: promastigote form, 24 h treatment, resazurin; read-out: IC50 L. infantum
Method in brief: as §1

[3] = system: RAW macrophages infected with Leishmania infantum; test: Infectivity test / infection rate in RAW macrophages; assay type: cell-based; details: three concentrations (below IC50, IC50, above IC50), 24 h treatment
Experimental: For the infection of RAW macrophages adhered to the plates, we used parasites in the promastigote form of Leishmania infantum, in the stationary phase, in a ratio of 10:1 (promastigotes/macrophages).
Macrophages were plated in the amount of 5 × 10^4 cells per well, in 96-well plates, which were kept in a CO2 oven at 37 °C for 24 h. The parasites were plated at a concentration of 10:1. The plates were kept in a CO2 oven for 12 h until the parasites infected the cells. […] Plates were fixed with paraformol for further evaluation. Plaques were evaluated by counting parasites within 200 cells under the EVOS Cell Imaging System (Thermo Scientific, Waltham, MA, USA) microscope by staining with propidium iodide.
In view of the data obtained, the six most promising compounds (HL1^Ch, HL2^Ph, Ag3, Ag4, Ag6 and Au2) were selected for carrying out the infection rate test against the L. infantum parasite. […] This test was performed at four stages. The first step determined the percentage of the amount in 200 infected macrophages per parasite, the second determined the percentage of parasites that infects 100 cells/macrophages, the third determined the average percentage of parasites that infects 200 cells/macrophages and, finally, the fourth step indicated the infection rate, that is, the result of the amount of Leishmania per macrophage (obtained from the third step) multiplied by the percentage of infected macrophages. Figure 5 presents the graphs of the infection rates, while the other graphs can be found in Figure S7.4.

[4] = Solubility in buffer for the fluorescence experiments; assay type: physicochemical; details: Tris-HCl buffer
Experimental: The compounds were solubilized in DMSO and then we made successive dilutions in a Tris-HCl 25 mmol L^−1 buffer, pH 8.0, containing 100 mmol L^−1 of NaCl. For all experiments, the final concentration of DMSO was kept constant and equal to 2.5%. Solutions with increasing concentrations of ligand and constant concentration of LbOYE (1 µmol L^−1) were prepared, which were kept at 25 °C for a period of 1h before acquisition of fluorescence emission spectra.
After the synthesis and structural characterization of the compounds, studies of interaction of the compounds and the recombinant LbOYE were carried out by fluorescence measurements.

## Cc1ccc(S(=O)(=O)NNC(Nc2ccc(F)cc2)=[S][Ag+][S]=C(NNS(=O)(=O)c2ccc(C)cc2)Nc2ccc(F)cc2)cc1.O=[N+]([O-])[O-] [Ag3, [Ag(HL3^FPh)2]NO3]
[1]; promastigote form, 24 h treatment, resazurin, read-out: IC50 L. braziliensis
  IC50: 233.9 ± 0.031 µM
[1]; selectivity index = CC50 (Vero) / IC50 (L. braziliensis promastigotes)
  SI L. braziliensis: >2.14
[2]
  IC50: 92.83 ± 0.072 µM
[3]
  Infection rate of L. infantum in macrophages, in words: able to inhibit the parasite infection inside the cells even at lower concentrations than that determined by their IC50 values; also recorded: able to inhibit the parasite infection even at lower concentrations than that of their IC50 values
[4]
  Solubility in buffer at the concentrations for the fluorescence experiments, in words: passed this stage

From paper PMC11053681, “Gold(I) and Silver(I) Complexes Containing Hybrid Sulfonamide/Thiourea Ligands as Potential Leishmanicidal Agents” (Pharmaceutics, 2024)
